# Laboratory results: US20130071936A1, “FRET-BASED ZINC(II) ION INDICATOR” (The Florida State University Research Foundation, Inc., priority 2011, published 2013)
# Like-named read-outs stand apart in the source and are kept apart here. Marks after values point to notes of the source that are not given here.
# Assays:
# [1] = Spectroscopic data (absorption, emission, fluorescence quantum yield) in CH3CN; format: physicochemical; details: for λem / λabs (A band) / λabs (D band) / ∈/10^3 (A band) / ∈/10^3 (D band): complexes: Zn(ClO4)2 10 equiv.
# Description: Reagents and solvents were purchased from various commercial sources and used without further purification unless otherwise stated. CH3CN (OmniSolv, EMD) were directly used in titration experiments without purification. All reactions were carried out in oven- or flame-dried glassware. Analytical thin-layer chromatography (TLC) was performed using pre-coated TLC plates with silica gel 60 F254 (EMD) or with aluminum oxide 60 F254 neutral (EMD). Flash column chromatography was performed using 40-63 μm (230-400 mesh ASTM) silica gel (EMD) or alumina (80-200 mesh, pH 9-10, EMD) as the stationary phases. Silica and alumina gel was flame-dried under vacuum to remove absorbed moisture before use. ^1H NMR spectra were recorded at 300 MHz on a Varian Mercury spectrometer. ^13C NMR spectra were recorded at 125 MHz, on a Bruker Avance spectrometer. All chemical shifts were reported in δ units relative to tetramethylsilane. High resolution mass spectra were obtained at the Mass Spectrometry Laboratory at Florida State University. ESI spectra were obtained on a JEOL AccuTOF spectrometer. Spectrophotometric and fluorometric titrations were conducted on a Varian Cary 100 Bio UV-Visible Spectrophotometer and a Varian Cary Eclipse Fluorescence Spectrophotometer, respectively, with a 1-cm standard quartz cell. The fluorescence quantum yield was determined by comparison of the integrated area of corrected emission spectrum with reference of N,N′-di-n-octyl-2,6-di-n-octylamino-1,4,5,8-naphthalenetetracarboxylic acid diimide (φf=0.53 in CH2Cl2) as the reference by the literature method. See Thalacker, C.; Röger, C.; Würthner, F. J. Org.
# [2] = pKa and effect of pH on emission; format: physicochemical
# Description: FIG. 10 is a graph depicting the effect of pH on emission spectra of zinc(II) ion chelated FRET donor compound (1) (pH=2.7-10.4).
# The titration experiments using zinc(II) ion indicator (4) were also carried out in an aqueous/organic mixed solvent (1:9 MOPS buffer (pH 7.2)/CH3CN). […] (FIG. 9). Comparing to the observations in CH3CN, the fluorescence is rather dim. The loss of fluorescence can be explained by the hydrogen bonding interaction between the protic solvent and the carbonyl groups on NDI, which provides a non-radiative deactivation pathway. See F. Würthner, S. Ahmed, C. Thalacker and T. Debaerdemaeker, Chem. Eur. J., 2002, 8, 4742. […] By extension, the fluorescence of zinc(II) ion indicators (4) and (5) would not be affected by the fluctuations of pH within the physiological range.
# [3] = CH3CN, data taken from Younes et al. J. Org. Chem. 2009, cited from earlier work
# [4] = tested on: mitochondrial zinc(II) in HeLa (S3) cells; assay: Zinc(II) supplementation experiment, fluorescence microscopy; format: cell-based; details: indicator 1.8 μM, 50 μM ZnCl2, λex 405 nm, λem 580-680 nm
# Description: FIGS. 15A and 15B are fluorescence images of HeLa (S3) cells incubated with compound (5) (1.8 μM). FIG. 15A depicts no zinc(II) added, and FIG. 15B depicts fluorescence in the presence of 50 μM ZnCl2. A 405 nm diode laser line was used for excitation. λem 580-680 nm. Scale bar: 10 μm. The DIC images are included in FIGS. 16A and 16B.
# FIGS. 16A and 16B are DIC and fluorescence overlay images of HeLa (S3) cells incubated with compound (5) (1.8 μM). FIG. 16A depicts no zinc(II) added, and FIG. 16B depicts emission in the presence of 50 μM ZnCl2. A 405 nm diode laser line was used for excitation. λem 580-680 nm. Scale bar: 10 μm.
# See also FIGS. 16A and 16B. […] The addition of zinc(II) ion indicator (5) to the group of very few synthetic indicators that target mitochondrial zinc(II) shall aid the characterization of mitochondrial zinc(II) which is intimately correlated to the chemistry of reactive oxygen species (ROS). See E. Tomat, E. M. Nolan, J. Jaworski and S. J. Lippard, J. Am. Chem. Soc., 2008, 130, 15776; G. Masanta, C. S. Lim, H. J. Kim, J. H. Han, H. M. Kim and B. R. Cho, J. Am. Chem. Soc., 2011, 133, 5698; Y. Qin, P. J. Dittmer, J. G. Park, K. B. Jansen and A. E. Palmer, Proc. Nat. Acad. Sci. USA, 2011, 108, 7351; and S. L. Sensi, D. Ton-That, P. G. Sullivan, E. A. Jonas, K. R. Gee, L. K. Kaczmarek and J. H. Weiss, Proc. Natl. Acad. Sci. U.S.A., 2003, 100, 6157. […]
# [5] = tested on: mitochondria of HeLa (S3) cells transfected with mCerulean3 TOMM-20; assay: Colocalization by confocal fluorescence microscopy with mCerulean3 TOMM-20; format: cell-based
# Description: FIGS. 13A through 13F are confocal fluorescence images of living HeLa (S3) cells transfected with mCerulean3 TOMM-20 that were incubated with zinc(II) ion indicator (5) (1.8 μM, A-C) and zinc(II) ion indicator (4) (6.0 μM, D-F) for 30 min. FIGS. 13A (zinc(II) ion indicator (5)) and 13D (zinc(II) ion indicator (4)) depict the green channel, λex 405 nm, λem 425-475 nm. FIGS. 13B (zinc(II) ion indicator (5)) and 13E (zinc(II) ion indicator (4)) depict the red channel, λex 543 nm, λem 580-680 nm. FIGS. 13C (zinc(II) ion indicator (5)) and 13F (zinc(II) ion indicator (4)) depict the merged image. Scale bar: 10 μm.
# FIGS. 14A through 14F are confocal fluorescence images of live HeLa (S3) cells transfected with mCer3 TOMM20 that were incubated with FRET acceptor compound (3) (9.0 μM, A-C) and FRET acceptor compound (2) (52 μM, D-F) for 30 min. FIGS. 14A (FRET acceptor compound (3)) and 14D (FRET acceptor compound (2)) depict the green channel, λex 405 nm, λem 425-475 nm. FIGS. 14B (FRET acceptor compound (3)) and […] (FRET acceptor compound (2)) depict the red channel, λex 543 nm, λem 580-680 nm. FIGS. 14C (FRET acceptor compound (3)) and […] (FRET acceptor compound (2)) depict the merged image. Scale bar: 10 μm.
# The colocalization properties of red-emitting compounds (2-5) were studied using HeLa (S3) cells transfected with mCerulean3 TOMM-20, a cyan fluorescent protein (CFP) fused with a mitochondrial targeting sequence whose emission is shown in the green channel. See FIG. 13A for emission spectrum from cells incubated with TPP-containing zinc(II) ion indicator (5), and see FIG. 13D for emission spectrum from cells incubated with zinc(II) ion indicator (4). […] The overall intracellular fluorescence intensity from zinc(II) ion indicator (4) is low, which is consistent with the observed weak fluorescence of the NDI fluorophore in aqueous solutions.
# The localization properties of (2-5) were determined via costaining experiments using mCerulean3 TOMM-20, a mitochondrial-specific fusion of the cyan fluorescent protein (CFP) mCerulean3. mCerulean3 is a bright monomeric FP with an emission maximum of 475 nm. HeLa S3 cells were seeded onto Bioptechs Delta-T dishes 48 h prior to experimentation, then transfected about 24 h prior to loading the indicator using an Effectene Transfection Reagent Kit (Qiagen) and 1 μg of DNA. A 1:1 mixture of Dulbecco's modified Eagle's medium and Ham's F-12 (Invitrogen) supplemented with 12.5% fetal bovine serum was used as the culture medium. On the day of experimentation cells were rinsed twice with media and incubated with indicator 5 (1.8 μM) for 30 min. Prior to imaging cells were again rinsed twice with media, then provided with 1 mL of fresh media.
# All cells were imaged using an Olympus Fluoview FV1000 confocal laser scanning microscope with an Olympus PLAPO 60× oil-immersion objective (NA=1.4). During experimentation cells were maintained at 37° C. and 5.0% CO2 using a Bioptechs Delta T4 Culture Dish Controller. Individual cells were imaged sequentially in two channels, using a 543 nm Helium-Neon laser line to excite the indicator and a 405 nm diode laser line to excite the FP. Cells were selected by the quality of FP expression, as the indicators tended to load homogenously into the cells. All data was collected using FluoView Software (Olympus). Laser power and detection settings were optimized for each image to fill LUTs. A pinhole size of 200 μm was used for each image. […]
# [6] = λex = 400 nm, Zn(ClO4)2 10 equiv.
SMILES,λabs [1],∈/10^3 [1],λem [1],λabs (A band) [1],λabs (D band) [1],∈/10^3 (A band) [1],∈/10^3 (D band) [1],φf ([1]; λex = 565 nm),also measured
"COc1ccc(/C=C/c2ccc(-c3ccc(C)cn3)nc2)cc1 [(1), 5-(4-methoxystyryl)-5′-methyl-2,2′-bipyridine]",345 nm,34 10^3 M^-1 cm^-1,428 nm,,,,,,φf ([1]; λex = 365 nm): 0.28^a; pKa [2]: 4.6
COc1ccc(/C=C/c2ccc(-c3ccc(C)cn3)nc2)cc1.[Zn+2] [[Zn(1)]^2+],,,,,,,,,"change of fluorescence intensity with pH ([2]; range of pH 6.0-9.0, intensity at 460 nm, λex 380 nm): little change; φf ([3]; λex = 365 nm): 0.46^a; λabs [3]: 374 nm; λem [3]: 528 nm; ∈/10^3 [3]: 28 10^3 M^-1 cm^-1"
COCCCN1C(=O)c2cc(NCCOc3ccc(/C=C/c4ccc(-c5ccc(COCCOCCOC)cn5)nc4)cc3)c3c4c(cc(NCCCCC[P+](c5ccccc5)(c5ccccc5)c5ccccc5)c(c24)C1=O)C(=O)N(CCCOC)C3=O.I.[Zn+2] [[Zn(5)]^2+],,,633 nm,602 (A) nm,363 (D) nm,21 10^3 M^-1 cm^-1,67 10^3 M^-1 cm^-1,,"φf [1, 6]: 0.29^e"
COCCCNc1cc2c3c(c(NCCCOC)cc4c3c1C(=O)N(CCCOC)C4=O)C(=O)N(CCCOC)C2=O [Compound (2)],607 nm,22 10^3 M^-1 cm^-1,638 nm,,,,,0.51^c,
COCCCNc1cc2c3c(c(NCCCCC[P+](c4ccccc4)(c4ccccc4)c4ccccc4)cc4c3c1C(=O)N(CCCOC)C4=O)C(=O)N(CCCOC)C2=O [Compound (3)],607 nm,23 10^3 M^-1 cm^-1,639 nm,,,,,0.48^c,
COCCCNc1cc2c3c(c(NCCOc4ccc(/C=C/c5ccc(-c6ccc(COCCOCCOC)cn6)nc5)cc4)cc4c3c1C(=O)N(CCCOC)C4=O)C(=O)N(CCCOC)C2=O.[Zn+2] [[Zn(4)]^2+],,,633 nm,600 (A) nm,360 (D) nm,21 10^3 M^-1 cm^-1,55 10^3 M^-1 cm^-1,,"φf [1, 6]: 0.31^e"
COCCCN1C(=O)c2cc(NCCOc3ccc(/C=C/c4ccc(-c5ccc(COCCOCCOC)cn5)nc4)cc3)c3c4c(cc(NCCCCC[P+](c5ccccc5)(c5ccccc5)c5ccccc5)c(c24)C1=O)C(=O)N(CCCOC)C3=O.[I-] [Compound (5)],,,633 nm,602 (A) nm,347 (D) nm,23 10^3 M^-1 cm^-1,81 10^3 M^-1 cm^-1,0.28^c,"red channel fluorescence upon addition of supplemental zinc(II) in the growth media [4]: increase in intramolecular fluorescence; colocalization with mitochondrial CFP (mCerulean3 TOMM-20) ([5]; 30 min incubation, (5) 1.8 μM, (4) 6.0 μM, (3) 9.0 μM, (2) 52 μM): localizes selectively in mitochondria; overall intracellular fluorescence intensity ([5]; red channel λex 543 nm, λem 580-680 nm): surprisingly strong intracellular fluorescence"
